# Assay results taken from ChEMBL document CHEMBL3525948, “Quantitative prediction of CYP2B6 induction by estradiol during pregnancy: potential explanation for increased methadone clearance during pregnancy” (Drug Metab Dispos, 2013).
# How the values were obtained:
# Hepatocyte = experiment: Induction of CYP2B6 mRNA expression in human donor hepatocytes after 48 hrs by real-time PCR method; format: ADME, cell-based
# CYP2B6 = target: T1, CYP2B6 (Homo sapiens, UniProt P20813); experiment: Induction of CYP2B6 activity in human donor hepatocytes assessed as hydroxybupropion formation after 48 hrs by LC/MS method; format: ADME, cell-based, Hepatocyte; details: probe bupropion (hydroxybupropion formation measured)
# T1 sequence (P20813 whole entry): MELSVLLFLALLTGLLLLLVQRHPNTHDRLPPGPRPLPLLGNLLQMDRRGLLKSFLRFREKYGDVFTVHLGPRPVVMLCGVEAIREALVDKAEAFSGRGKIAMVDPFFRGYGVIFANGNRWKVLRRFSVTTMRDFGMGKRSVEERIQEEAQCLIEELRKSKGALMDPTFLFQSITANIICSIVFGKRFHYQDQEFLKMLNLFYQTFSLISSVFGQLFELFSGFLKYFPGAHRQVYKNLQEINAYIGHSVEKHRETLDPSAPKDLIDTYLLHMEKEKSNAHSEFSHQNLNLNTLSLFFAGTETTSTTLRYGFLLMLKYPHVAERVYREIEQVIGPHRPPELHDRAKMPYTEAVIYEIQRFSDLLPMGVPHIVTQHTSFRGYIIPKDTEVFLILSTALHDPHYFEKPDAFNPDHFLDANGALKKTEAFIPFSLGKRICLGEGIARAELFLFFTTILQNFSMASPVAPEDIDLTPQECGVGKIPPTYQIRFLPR
EC50 at 48 h (CYP2B6) [nM],Structure (SMILES),EC50 (Hepatocyte) [nM]
145000,NC(=O)N1c2ccccc2C=Cc2ccccc21 [CARBAMAZEPINE],26000
1300,CO[C@H]1/C=C/O[C@@]2(C)Oc3c(C)c(O)c4c(O)c(c(/C=N/N5CCN(C)CC5)c(O)c4c3C2=O)NC(=O)/C(C)=C\C=C\[C@H](C)[C@H](O)[C@@H](C)[C@@H](O)[C@@H](C)[C@H](OC(C)=O)[C@@H]1C [RIFAMPIN],980

Structure (SMILES),EC50 at 48 h (CYP2B6) [nM],EC50 (Hepatocyte) [nM]
C[C@]12CC[C@@H]3c4ccc(O)cc4CC[C@H]3[C@@H]1CC[C@@H]2O [ESTRADIOL],4100,1900
